Measurements taken from the Kinase Knowledgebase extract (Sharma et al. 2016).

Molecular target: MAPK14 (UniProt Q16539)
Test: p38 Kinase Inhibition

Sequence of MAPK14 (Q16539 whole entry, looked up): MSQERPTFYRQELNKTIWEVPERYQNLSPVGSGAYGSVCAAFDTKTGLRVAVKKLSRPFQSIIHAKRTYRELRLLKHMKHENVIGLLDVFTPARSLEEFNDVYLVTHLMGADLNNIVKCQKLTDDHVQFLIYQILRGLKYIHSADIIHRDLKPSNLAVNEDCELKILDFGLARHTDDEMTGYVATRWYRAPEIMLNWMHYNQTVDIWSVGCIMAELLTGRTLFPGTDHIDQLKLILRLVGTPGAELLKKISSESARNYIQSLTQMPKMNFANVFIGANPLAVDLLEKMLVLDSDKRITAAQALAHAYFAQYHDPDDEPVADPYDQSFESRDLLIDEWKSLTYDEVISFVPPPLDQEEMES

Compound | IC50 [µM]
Cc1cccc(C)c1Nc1nccc(-c2c(-c3ccc(F)cc3)ncn2C2CCNCC2)n1 | < 50
Fc1ccc(-c2ncn(C3CCCCC3)c2-c2ccnc(NCCCN3CCOCC3)n2)cc1 | < 50
COc1ccc(C(=O)NCCn2cnc(-c3ccc(F)cc3)c2-c2ccnc(NCc3ccc(Cl)c(Cl)c3)n2)cc1OC | < 50
Fc1ccc(-c2ncn(-c3ccc(F)cc3)c2-c2ccnc(Nc3ccccc3)n2)cc1 | < 50
O=C(Nc1cccc(C(F)(F)F)c1)N1CCC(n2cnc(-c3ccc(F)cc3)c2-c2ccnc(Nc3ccccc3C(F)(F)F)n2)CC1 | < 50
CC(C)n1cnc(-c2ccc(F)cc2)c1-c1ccnc(Nc2ccccc2)n1 | < 50
Cc1ccc(F)cc1Nc1nccc(-c2c(-c3ccc(F)cc3)ncn2C2CCNCC2)n1 | < 50
CCOCC(=O)NCCn1cnc(-c2ccc(F)cc2)c1-c1ccnc(NCc2ccc(OC)cc2)n1 | < 50
Fc1ccc(-c2ncn(-c3ccc(F)cc3)c2-c2ccnc(N3CCOC(Nc4ccccc4)C3)n2)cc1 (stereo not given) | < 50
Fc1ccc(-c2ncn(C3CCCCC3)c2-c2ccnc(NCCc3c[nH]cn3)n2)cc1 | < 50
Cc1ccccc1Nc1nccc(-c2c(-c3ccc(F)cc3)ncn2C2CCNCC2)n1 | < 50
Fc1ccc(-c2ncn(C3CCCC3)c2-c2ccnc(Nc3ccccc3)n2)cc1 | < 50
Fc1ccc(-c2ncn(C3CCCCC3)c2-c2ccnc(Nc3ccccc3)n2)cc1 | < 50
Cc1cccc(C)c1Nc1nccc(-c2c(-c3ccc(F)cc3)ncn2-c2ccc(F)cc2)n1 | < 50
Fc1ccc(-c2ncn(C3CCCCC3)c2-c2ccnc(NCCC(c3ccccc3)c3ccccc3)n2)cc1 | < 50
Cc1cc(F)ccc1Nc1nccc(-c2c(-c3ccc(F)cc3)ncn2C2CCN(C(=O)OC(C)(C)C)CC2)n1 | < 50
Fc1ccc(Nc2nccc(-c3c(-c4ccc(F)cc4)ncn3-c3ccc(F)cc3)n2)cc1 | < 50
Fc1ccc(-c2ncn(C3CCCCC3)c2-c2ccnc(NCc3cccnc3)n2)cc1 | < 50
Cc1ccccc1Nc1nccc(-c2c(-c3ccc(F)cc3)ncn2-c2ccc(F)cc2)n1 | < 50
CC(CCc1ccccc1)Nc1nccc(-c2c(-c3ccc(F)cc3)ncn2C2CCCCC2)n1 (stereo not given) | < 50
